In patent US11878023B2, “Compositions and methods for delivering pharmaceutical agents” (Arizona Board of Regents on Behalf of the University of …, priority 2017, dated 2024):
Counter-ions that a name gives are not always drawn.

What was measured:
[1] = Residual water content by Karl Fischer titration (KFT); format: physicochemical
Description: Using conditions similar to those previously reported (Li et al., 2014, supra; […], et al., European journal of pharmaceutical sciences: official journal of the European Federation for Pharmaceutical Sciences. Jul. 16, 2013; 49(4):699-711; […], et al., International journal of nanomedicine. 2013; 8:275-293), the residual water content of all SD powders were quantified analytically by Karl Fischer titration (KFT) coulometrically using a TitroLine 7500 trace titrator (SI Analytics, Germany). Approximately 2-10 mg of powder was added to the titration cell containing Hydranal® Coulomat AD reagent. The residual water content was measured at the end of titration.

[2] = Laser diffraction particle size analysis; format: physicochemical; conditions: laser sizing, n = 3
Description: The laser diffraction particle size analysis was performed on raw Fas and all co-SD samples.

Residual Water content ([1]; n = 3): 2.97 ± 0.06 % w/w
Residual Water content ([1]; n = 3, listed as raw Fas): 2.97 % w/w
DV90 [2]: 7.42 ± 0.19 μm
Dv10 [2]: 3.67 ± 0.32 μm
Dv50 [2]: about 5 μm
Span Value [2]: 0.765 ± 0.15
Dv50 ([2]; listed as Raw FH): 4.96 ± 3.5 μm
Compound: O=S(=O)(c1cccc2cnccc12)N1CCCNCC1 [Raw Fas, Fasudil monohydrochloride hemihydrate salt]
